Data: ChEMBL document CHEMBL2384989, “Abietane diterpenoids and a sesquiterpene pyridine alkaloid from Euonymus lutchuensis” (J Nat Prod, 2013)
Values after ≈ are worked out from the molar mass of the structure shown.

Experiments:
Format in all cases: functional, cell-based
HL-60 = experiment: Cytotoxicity against human HL60 cells after 48 hrs by MTT assay; settings: HL-60, 48 h
HCT-116 = experiment: Cytotoxicity against human HCT116 cells after 48 hrs by MTT assay; settings: HCT-116, 48 h
P388 = experiment: Cytotoxicity against mouse P388 cells after 48 hrs by MTT assay; settings: P388, 48 h

Row | Compound | IC50 (HL-60) [mg/L] | IC50 (HCT-116) [mg/L] | IC50 (P388) [mg/L] | IC50 (HL-60; read-out: IC50) [mg/L] | IC50 (HCT-116; read-out: IC50) [mg/L] | IC50 (P388; read-out: IC50) [mg/L]
1 | CC(=O)OC[C@]12[C@H](OC(C)=O)[C@H](OC(C)=O)[C@@H]3[C@@H](O)[C@@]14OC3(C)COC(=O)c1cccnc1[C@H](C)[C@@H](C)C(=O)O[C@H]([C@H](O)[C@@H]2OC(=O)c1ccccc1)C4(C)O (stereo partly specified) [EUOLUCHUMINE] | > 5 | > 5 | > 5 | – | – | –
2 | CC(C)c1cc2c(cc1O)C[C@@]13CCCC(C)(C)[C@@H]1C[C@@H]2O3 | > 5 | > 5 | > 5 | – | – | –
3 | CC(CO)c1ccc2c(c1)CC[C@H]1C(C)(C)C(=O)CC[C@]21C (stereo partly specified) | > 5 | > 5 | > 5 | – | – | –
4 | CC(O)c1ccc2c(c1)CC[C@H]1C(C)(C)C(=O)CC[C@]21C (stereo partly specified) | > 5 | > 5 | > 5 | – | – | –
5 | CC(CO)c1cc2c(cc1O)[C@@]1(C)CCC(=O)C(C)(C)[C@@H]1CC2 (stereo partly specified) | – | – | – | < 5 | < 5 | < 5
6 | CC(=O)O[C@H]1C(=O)[C@@]2(C)[C@H]([C@H](OC(=O)c3ccccc3)[C@]3(O)C[C@H](OC(=O)[C@H](O)[C@@H](NC(=O)c4ccccc4)c4ccccc4)C(C)=C1C3(C)C)[C@]1(OC(C)=O)CO[C@@H]1C[C@@H]2O [PACLITAXEL] | – | – | – | 0.005 (≈ 0.00586 µM) | 0.045 (≈ 0.0527 µM) | 0.2 (≈ 0.234 µM)
7 | CC(CO)c1ccc2c(c1)CC[C@H]1C(C)(C)[C@@H](O)C(=O)C[C@]21C (stereo partly specified) | > 5 | > 5 | > 5 | – | – | –
